The results in this text go back to patent US9278981B2, “Compounds and compositions for inhibiting the activity of ABL1, ABL2 and BCR-ABL1” (Novartis AG, priority 2012, dated 2016).

In general, pIC50 refers to the IC50 on a negative log10 scale, so that one unit is a factor of ten.

Molecules are shown by their SMILES. pIC50: −log10 of the molar value. Bounds are passed on as bounds.

Assay [1] deals with T1, ABL1 (64-515) (Homo sapiens (Human), UniProt P00519). Description: Radio ABL1 (64-515) assay (radiometric filter-binding). The class given is biochemical.
T1 sequence (P00519 64-515): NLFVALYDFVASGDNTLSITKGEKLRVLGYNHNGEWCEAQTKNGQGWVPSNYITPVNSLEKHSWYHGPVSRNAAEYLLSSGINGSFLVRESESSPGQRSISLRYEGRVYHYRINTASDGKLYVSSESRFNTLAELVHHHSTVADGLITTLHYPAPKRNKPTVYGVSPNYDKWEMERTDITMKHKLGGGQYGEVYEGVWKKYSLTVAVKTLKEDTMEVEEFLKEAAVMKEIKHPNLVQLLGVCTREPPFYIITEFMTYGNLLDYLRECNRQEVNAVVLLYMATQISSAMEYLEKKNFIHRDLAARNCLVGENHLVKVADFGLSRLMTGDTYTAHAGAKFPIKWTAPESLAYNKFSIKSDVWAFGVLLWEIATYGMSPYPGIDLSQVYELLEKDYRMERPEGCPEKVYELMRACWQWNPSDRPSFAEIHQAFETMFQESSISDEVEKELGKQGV
Assay [2] concerns the target T1, ABL1 (64-515). Nature of the assay: Caliper ABL1 (64-515) assay (microfluidic mobility shift). The class given is biochemical.
Procedure: Expression and purification of human ABL was performed using standard expression purification procedures. […] The His-ABL was expressed in E. coli BL21 (DE3) and the ABL proteins were isolated by Ni-affinity on a Ni-NTA column (Qiagen). The His-tag was removed by PreScission protease (GE Healthcare) and the non-phosphoprylated ABL further purified on a Mono Q HR 10/10 (GE Healthcare, mono-phosphorylated ABL is about 10-20% of total ABL protein) and HiLoad 16/60 Superdex 200 size exclusion column (GE Healthcare).
All assays were performed in 384-well microtiter plates. Each assay plate contained 8-point serial dilutions for 40 test compounds, as well as four 8-point serial dilutions of staurosporine as a reference compound, plus 16 high and 16 low controls. Liquid handling and incubation steps were done on a Thermo CatX workstation equipped with Innovadyne Nanodrop Express. Between pipetting steps, tips were cleaned in wash cycles using wash buffer.
The assay plates were prepared by addition of 50 nL per well of compound solution in 90% DMSO. […] Plates with terminated kinase reactions were transferred to the Caliper LC3000 workstations for reading. Phosphorylated and unphosphorylated peptides were separated using the Caliper microfluidic mobility shift technology. Briefly, samples from terminated kinase reactions were applied to the chip. Analytes are transported through the chip by constant buffer flow and the migration of the substrate peptide is monitored by the fluorescence signal of its label. Phosphorylated peptide (product) and unphosphorylated peptide (substrate) are separated in an electric field by their charge/mass ratio. Kinase activities were calculated from the amounts of formed phospho-peptide. IC50 values were determined from percent inhibition values at different compound concentrations by non-linear regression analysis.
Test compounds were dissolved in DMSO (10 mM) and transferred into 1.4 mL flat bottom or V-shaped Matrix tubes carrying a unique 2D matrix. The stock solutions were stored at +2° C. if not used immediately. For the test procedure the vials were defrosted and identified by a scanner whereby a working sheet was generated that guided the subsequent working steps.
Compound dilutions were made in 96-well plates. This format enabled the assay of maximally 40 individual test compounds at 8 concentrations (single points) including 4 reference compounds. The dilution protocol included the production of “pre-dilution plates”, “master plates” and “assay plates”.
Polypropylene 96-well plates were used as pre-dilution plates. […] All dilution steps were done on a HamiltonSTAR robot.
These plates were used directly for the assay which was performed in a total volume of 9.05 μL.

On to `Cc1ncc(-c2cc(C(=O)Nc3ccc(OC(F)(F)F)cc3)cnc2N2CC(C)(O)C2)cc1F` [Example 133, 5′-Fluoro-2-(3-hydroxy-3-methylazetidin-1-yl)-6′-methyl-N-(4-(trifluoromethoxy)phenyl)-[3,3′-bipyridine]-5-carboxamide], for which the figures for the pIC50 at ABL1 (64-515) [1] and at ABL1 (64-515) [2] were more than 8.52 and 8.85, respectively.

With `O=C(Nc1ccc(OC(F)(F)F)cc1)c1cnc(N2CC(CO)C2)c(-c2cncnc2)c1` [Example 135, 6-(3-(Hydroxymethyl)azetidin-1-yl)-5-(pyrimidin-5-yl)-N-(4-(trifluoromethoxy)phenyl)nicotinamide], the pIC50 at ABL1 (64-515) [1] was more than 8.52; on ABL1 (64-515) [2], 8.70.

As for `O=C(Nc1ccc(OC(F)(F)F)cc1)c1cnc(N2CC(CO)C2)c(-c2cccnc2)c1` [Example 137, 2-(3-(Hydroxymethyl)azetidin-1-yl)-N-(4-(trifluoromethoxy)phenyl)-[3,3′-bipyridine]-5-carboxamide], the pIC50 is 8.22 at ABL1 (64-515) [1] and 9.22 at ABL1 (64-515) [2].

For the molecule `Cc1ccc(-c2cc(C(=O)Nc3ccc(OC(F)(F)F)cc3)cnc2N2CC(CO)C2)cn1` [Example 138, 2-(3-(Hydroxymethyl)azetidin-1-yl)-6′-methyl-N-(4-(trifluoromethoxy)phenyl)-[3,3′-bipyridine]-5-carboxamide], the pIC50 at ABL1 (64-515) [1] is 8.15; on ABL1 (64-515) [2] it was 9.10.

Regarding `O=C(Nc1ccc(OC(F)(F)F)cc1)c1cnc(N2CC(CO)C2)c(-c2cncc(F)c2)c1` [Example 139, 5′-Fluoro-2-(3-(hydroxymethyl)azetidin-1-yl)-N-(4-(trifluoromethoxy)phenyl)-[3,3′-bipyridine]-5-carboxamide], the pIC50 on ABL1 (64-515) [1] was 8.30; at ABL1 (64-515) [2], 9.22.

Take `Cc1ncc(-c2cc(C(=O)Nc3ccc(OC(F)(F)F)cc3)cnc2N2CC(CO)C2)cc1F` [Example 140, 5′-Fluoro-2-(3-(hydroxymethyl)azetidin-1-yl)-6′-methyl-N-(4-(trifluoromethoxy)phenyl)-[3,3′-bipyridine]-5-carboxamide]: the pIC50 at ABL1 (64-515) [1] is 8.40; on ABL1 (64-515) [2], 9.40.

For `CC(C)(O)C1CN(c2ncc(C(=O)Nc3ccc(OC(F)(F)F)cc3)cc2-c2cccnc2)C1` [Example 143, 2-(3-(2-Hydroxypropan-2-yl)azetidin-1-yl)-N-(4-(trifluoromethoxy)phenyl)-[3,3′-bipyridine]-5-carboxamide], the pIC50 at ABL1 (64-515) [1] is 8.40; at ABL1 (64-515) [2], 8.96.

On to `O=C(Nc1ccc(OC(F)(F)F)cc1)c1cnc(N2CCOCC2)c(-c2cncnc2)c1` [Example 148, 6-Morpholino-5-(pyrimidin-5-yl)-N-(4-(trifluoromethoxy)phenyl)nicotinamide], for which the pIC50 at ABL1 (64-515) [1] is 8.52; at ABL1 (64-515) [2], 8.60.

As to `O=C(Nc1ccc(OC(F)(F)F)cc1)c1cnc(N2CCOCC2)c(-c2ccc(CO)nc2)c1` [Example 149, 6′-(Hydroxymethyl)-2-morpholino-N-(4-(trifluoromethoxy)phenyl)-[3,3′-bipyridine]-5-carboxamide], the pIC50 on ABL1 (64-515) [1] is 8.52; at ABL1 (64-515) [2], 8.59.

For `O=C(Nc1ccc(OC(F)(F)F)cc1)c1cnc(N2C3COCC2COC3)c(-c2cncnc2)c1` [Example 150, 6-(3,7-Dioxa-9-azabicyclo[3.3.1]nonan-9-yl)-5-(pyrimidin-5-yl)-N-(4-(trifluoromethoxy)phenyl)nicotinamide], the figures for the pIC50 at ABL1 (64-515) [1] and at ABL1 (64-515) [2] were 8.40 and 8.19, respectively.

Take `CN(CCO)c1ncc(C(=O)Nc2ccc(OC(F)(F)F)cc2)cc1-c1cncnc1` [Example 151, 6-((2-Hydroxyethyl)(methyl)amino)-5-(pyrimidin-5-yl)-N-(4-(trifluoromethoxy)phenyl)nicotinamide]: the figures for the pIC50 at ABL1 (64-515) [1] and on ABL1 (64-515) [2] were more than 8.52 and more than 9.89, respectively.

With `CN(CCO)c1ncc(C(=O)Nc2ccc(OC(F)(F)F)cc2)cc1-c1cncc(F)c1` [Example 154, 5′-Fluoro-2-((2-hydroxyethyl)(methyl)amino)-N-(4-(trifluoromethoxy)phenyl)-[3,3′-bipyridine]-5-carboxamide], the values for the pIC50 on ABL1 (64-515) [1] and at ABL1 (64-515) [2] were more than 8.52 and 9.00, respectively.

Regarding `CN(CCO)c1ncc(C(=O)Nc2ccc(OC(F)(F)F)cc2)cc1-c1cncc(C#N)c1` [Example 155, 5′-Cyano-2-((2-hydroxyethyl)(methyl)amino)-N-(4-(trifluoromethoxy)phenyl)-[3,3′-bipyridine]-5-carboxamide], the pIC50 was 7.96 at ABL1 (64-515) [1] and 8.30 at ABL1 (64-515) [2].

As to `CCN(CCO)c1ncc(C(=O)Nc2ccc(OC(F)(F)F)cc2)cc1-c1cncnc1` [Example 156, 6-(Ethyl(2-hydroxyethyl)amino)-5-(pyrimidin-5-yl)-N-(4-(trifluoromethoxy)phenyl)nicotinamide], the pIC50 was 8.30 on ABL1 (64-515) [1] and 8.77 at ABL1 (64-515) [2].

With `CCN(CCO)c1ncc(C(=O)Nc2ccc(OC(F)(F)F)cc2)cc1-c1cncc(F)c1` [Example 157, 2-(Ethyl(2-hydroxyethyl)amino)-5′-fluoro-N-(4-(trifluoromethoxy)phenyl)-[3,3′-bipyridine]-5-carboxamide], the pIC50 on ABL1 (64-515) [1] was more than 8.52; at ABL1 (64-515) [2] it was 8.70.

Consider `CCN(CCO)c1ncc(C(=O)Nc2ccc(OC(F)(F)F)cc2)cc1-c1cncc(C#N)c1` [Example 158, 5′-Cyano-2-(ethyl(2-hydroxyethyl)amino)-N-(4-(trifluoromethoxy)phenyl)-[3,3′-bipyridine]-5-carboxamide], for which the pIC50 at ABL1 (64-515) [1] was 7.43; on ABL1 (64-515) [2] it was 8.55.

As for `O=C(Nc1ccc(OC(F)(F)Cl)cc1)c1cnc(N2CC[C@@H](O)C2)c(-c2cccnc2F)c1` [Example 172, (R)—N-(4-(Chlorodifluoromethoxy)phenyl)-2′-fluoro-2-(3-hydroxypyrrolidin-1-yl)-[3,3′-bipyridine]-5-carboxamide], the pIC50 is more than 8.52 at ABL1 (64-515) [1] and 9.52 on ABL1 (64-515) [2].

Turning to `O=C(Nc1ccc(OC(F)(F)Cl)cc1)c1cnc(N2CC[C@H](CO)C2)c(-c2cncnc2)c1` [Example 174, (S)—N-(4-(Chlorodifluoromethoxy)phenyl)-6-(3-(hydroxymethyl)pyrrolidin-1-yl)-5-(pyrimidin-5-yl)nicotinamide], the pIC50 on ABL1 (64-515) [1] is 8.52; on ABL1 (64-515) [2], 9.05.

Consider `NC[C@@H]1CCN(c2ncc(C(=O)Nc3ccc(OC(F)(F)Cl)cc3)cc2-c2cncnc2)C1` [Example 177, (S)-6-(3-(Aminomethyl)pyrrolidin-1-yl)-N-(4-(chlorodifluoromethoxy)phenyl)-5-(pyrimidin-5-yl)nicotinamide], for which the pIC50 on ABL1 (64-515) [1] is 9.00; at ABL1 (64-515) [2], 9.52.

As to `CC(=O)NC[C@H]1CCN(c2ncc(C(=O)Nc3ccc(OC(F)(F)Cl)cc3)cc2-c2cncnc2)C1` [Example 178, (R)-6-(3-(Acetamidomethyl)pyrrolidin-1-yl)-N-(4-(chlorodifluoromethoxy)phenyl)-5-(pyrimidin-5-yl)nicotinamide], the figures for the pIC50 on ABL1 (64-515) [1] and on ABL1 (64-515) [2] were 7.89 and 9.40, respectively.

For the molecule `CN(CCO)c1ncc(C(=O)Nc2ccc(OC(F)(F)Cl)cc2)cc1-c1cncnc1` [Example 179, N-(4-(Chlorodifluoromethoxy)phenyl)-6-((2-hydroxyethyl)(methyl)amino)-5-(pyrimidin-5-yl)nicotinamide], the pIC50 is 8.70 on ABL1 (64-515) [1] and 9.10 at ABL1 (64-515) [2].

In the case of `CN(CCO)c1ncc(C(=O)Nc2ccc(OC(F)(F)Cl)cc2)cc1-c1cncc(F)c1` [Example 180, N-(4-(Chlorodifluoromethoxy)phenyl)-5′-fluoro-2-((2-hydroxyethyl)(methyl)amino)-[3,3′-bipyridine]-5-carboxamide], the pIC50 on ABL1 (64-515) [1] was 9.00; on ABL1 (64-515) [2] it was 9.40.

With `CCN(CCO)c1ncc(C(=O)Nc2ccc(OC(F)(F)Cl)cc2)cc1-c1cncnc1` [Example 182, N-(4-(Chlorodifluoromethoxy)phenyl)-6-(ethyl(2-hydroxyethyl)amino)-5-(pyrimidin-5-yl)nicotinamide], the values for the pIC50 on ABL1 (64-515) [1] and at ABL1 (64-515) [2] were 8.40 and 9.22, respectively.

For `CCN(CCO)c1ncc(C(=O)Nc2ccc(OC(F)(F)Cl)cc2)cc1-c1cncc(F)c1` [Example 183, N-(4-(Chlorodifluoromethoxy)phenyl)-2-(ethyl(2-hydroxyethyl)amino)-5′-fluoro-[3,3′-bipyridine]-5-carboxamide], the values for the pIC50 on ABL1 (64-515) [1] and at ABL1 (64-515) [2] were 8.70 and 9.30, respectively.

Consider `CCN(CCO)c1ncc(C(=O)Nc2ccc(OC(F)(F)Cl)cc2)cc1-c1cncc(C#N)c1` [Example 184, N-(4-(Chlorodifluoromethoxy)phenyl)-5′-cyano-2-(ethyl(2-hydroxyethyl)amino)-[3,3′-bipyridine]-5-carboxamide], for which the pIC50 at ABL1 (64-515) [1] is 8.22; at ABL1 (64-515) [2], 9.10.

Regarding `N#Cc1cncc(-c2cc(C(=O)Nc3ccc(SC(F)(F)F)cc3)cnc2N2CC[C@@H](O)C2)c1` [Example 188, (R)-5′-Cyano-2-(3-hydroxypyrrolidin-1-yl)-N-(4-((trifluoromethyl)thio)phenyl)-[3,3′-bipyridine]-5-carboxamide], the pIC50 at ABL1 (64-515) [1] was 8.40; at ABL1 (64-515) [2] it was 9.70.

On to `O=C(Nc1ccc(SC(F)(F)F)cc1)c1cnc(N2CC[C@H](CO)C2)c(-c2cncnc2)c1` [Example 189, (S)-6-(3-(Hydroxymethyl)pyrrolidin-1-yl)-5-(pyrimidin-5-yl)-N-(4-((trifluoromethyl)thio)phenyl)nicotinamide], for which the results for the pIC50 at ABL1 (64-515) [1] and at ABL1 (64-515) [2] were 8.52 and 9.00, respectively.

As to `O=C(Nc1ccc(SC(F)(F)F)cc1)c1cnc(N2CC[C@H](CO)C2)c(-c2cncc(F)c2)c1` [Example 190, (S)-5′-Fluoro-2-(3-(hydroxymethyl)pyrrolidin-1-yl)-N-(4-((trifluoromethyl)thio)phenyl)-[3,3′-bipyridine]-5-carboxamide], the pIC50 at ABL1 (64-515) [1] was 8.23; on ABL1 (64-515) [2] it was 9.30.

In the case of `N#Cc1cncc(-c2cc(C(=O)Nc3ccc(SC(F)(F)F)cc3)cnc2N2CC[C@H](CO)C2)c1` [Example 191, (S)-5′-Cyano-2-(3-(hydroxymethyl)pyrrolidin-1-yl)-N-(4-((trifluoromethyl)thio)phenyl)-[3,3′-bipyridine]-5-carboxamide], the figures for the pIC50 on ABL1 (64-515) [1] and on ABL1 (64-515) [2] were 8.10 and 9.05, respectively.
